From patent EP2197879B1, “C7-SUBSTITUTED CAMPTOTHECIN ANALOGS” (priority 2007, dated 2009)
Where two headings read alike, the source gives them in different places.

Assays:
[1] = test system: advanced malignant melanoma; conditions: 90-360 mg/m^2 repeated every 2 weeks; fifteen patients; cited from earlier work
[2] = cited from earlier work; for No. of Patients With Cystitis / No. of Patients With Diarrhea: 5-day Course; for Number of Patients with Cystitis / Number of Patients with Diarrhea: Single-Dose Method
[3] = test system: advanced gastrointestinal cancer; conditions: cited from earlier work
[4] = cited from earlier work
[5] = test system: human plasma proteins
[6] = closed E-ring lactone form; drug dissolving in 1 mL of water; cited from earlier work
[7] = test system: angiogenesis; conditions: dose levels of 210 mg/kg; cited from earlier work
[8] = clinical studies in Japan alone; cited from earlier work
[9] = test system: panel of over 20 human cancer cell lines; experiment: In vitro antitumor potency on a panel of human cancer cell lines; conditions: compared with Topotecan or SN-38
[10] = cited from earlier work; remark: listed apart in the source
[11] = 5-Day Course (27 Patients Total), 4 wks
[12] = 5-Day Course (27 Patients Total), 8 wks
[13] = 5-Day Course (27 Patients Total), 12 wks
[14] = Single-Dose Method (34 Patients Total), 3 wks
[15] = Single-Dose Method (34 Patients Total), 6 wks
[16] = Single-Dose Method (34 Patients Total), 9 wks
[17] = Single-Dose Method (34 Patients Total), 12 wks

In the case of `CC[C@@]1(O)C(=O)OCc2c1cc1n(c2=O)Cc2cc3ccccc3nc2-1` [CPT sodium], the “patients with a 50% or greater decrease in tumor diameter” value [1] is given as “None”, the “patients with less pronounced transient tumor regression” value [1] is given as “three” and the patients with myelosuppression [1] is given as 11. The Cystitis ([2]; 5-Day Course) was 48 (P<0.05) % of 27 Patients, the “No. of Patients With Cystitis” value ([2]; 11 mg/m^2 X 5) was 1 and the “No. of Patients With Cystitis” value ([2]; 15 mg/m^2 X 5) was 4. The “No. of Patients With Diarrhea” value ([2]; 15 mg/m^2 X 5) was 1, the “No. of Patients With Cystitis” value ([2]; 17 mg/m^2 X 5) was 2 and the “No. of Patients With Diarrhea” value ([2]; 17 mg/m^2 X 5) was 4. For the same compound, the “No. of Patients With Cystitis” value ([2]; 20 mg/m^2 X 5) was 6, the “No. of Patients With Diarrhea” value ([2]; 20 mg/m^2 X 5) was 4 and the “No. of Patients With Diarrhea” value ([2]; 22 mg/m^2 X 5) was 1. For the same compound, the Cystitis ([2]; Single Dose) was 24 % of 34 Patients, the “Number of Patients with Cystitis” value ([2]; 100 mg/m^2) was 2 and the “Number of Patients with Cystitis” value ([2]; 110 mg/m^2) was 1. The “Number of Patients with Diarrhea” value ([2]; 110 mg/m^2) was 1, the “Number of Patients with Cystitis” value ([2]; 120 mg/m^2) was 2 and the “Number of Patients with Diarrhea” value ([2]; 120 mg/m^2) was 4. The “Number of Patients with Cystitis” value ([2]; 180 mg/m^2) was 3, the “Number of Patients with Diarrhea” value ([2]; 180 mg/m^2) was 2 and the “Objective Results: Improved” value [3, 11] was 1. For the same compound, the “Objective Results: Stable” value [3, 11] was 12, the “Objective Results: Worse” value [3, 11] was 14 and the “Objective Results: Stable” value [3, 12] was 7. The “Objective Results: Worse” value [3, 12] was 20, the “Objective Results: Stable” value [3, 13] was 6 and the “Objective Results: Worse” value [3, 13] was 21. The “Objective Results: Improved” value [3, 14] was 4, the “Objective Results: Stable” value [3, 14] was 17 and the “Objective Results: Worse” value [3, 14] was 13. For the same compound, the “Objective Results: Improved” value [3, 15] was 2, the “Objective Results: Stable” value [3, 15] was 11 and the “Objective Results: Worse” value [3, 15] was 21. The “Objective Results: Improved” value [3, 16] was 2, the “Objective Results: Stable” value [3, 16] was 8 and the “Objective Results: Worse” value [3, 16] was 24. For the same compound, the “Objective Results: Stable” value [3, 17] was 6, the “Objective Results: Worse” value [3, 17] was 28 and the “patients with partial objective improvement” value ([3]; after 2 months (8 or 9 weeks), of 61 patients) was “two”. The patients with improvement ([3]; at 3 months, of 61 patients) was “none”, the “patients who showed a 25%-50% response” value ([3]; at 3 wks, only) was “*A total of 3 patients showed a 25%-50% response at 3 wks, only” and the “patients with dose limiting bladder toxicity” value ([4]; doses of 20 to 30 mg/m^2) was “three”. The “additional patients with bladder toxicity” value ([4]; doses of 30 and 44 mg/m^2) was “two” and the clinical benefit ([4]; eight patients with measurable disease, 5-day courses) was “No clinical benefit”.
For `CC[C@@]1(O)C(=O)OCc2c1cc1n(c2=O)Cc2cc3ccccc3nc2-1` [CPT, (S)-4-Ethyl-4-hydroxy-1 H-pyrano[3',4':6,7]indolizino[1,2-b]quinoline-3,14(4H,12H)-dione], the “Percent of Free Camptothecin Analogs in Human Plasma” value ([5]; 100 nM Compound Concentrations, 48 hours or longer at room temperature) is given as 0% and the solubility in water [6] is given as “approximately 0.1 µg”.
For `CCc1c2c(nc3ccc(OC(=O)N4CCC(N5CCCCC5)CC4)cc13)-c1cc3c(c(=O)n1C2)COC(=O)[C@]3(O)CC` [CPT-11, 7-ethyl-10-[4-(1-piperidino)-1-piperidino] carbonyloxy camptothecin], the neovascularization [7] is listed as “significant reduction of neovascularization” and the “patient deaths directly attributable to drug toxicity” value [8] is listed as “approximately 100”.
With `CC[C@@]1(O)C(=O)OCc2c1cc1n(c2=O)Cc2c-1nc1ccccc1c2CC[Si](C)(C)C` [Karenitecin, (4S)-4-ethyl-4-hydroxy-11-[2-(trimethylsilyl)ethyl]-1H-pyrano[3':4':6,7]indolizino[1,2-b]quinoline-3,14(4H,12H)-dione] the “Percent of Free Camptothecin Analogs in Human Plasma” value [5] was 1.2%, the protein-bound [5] was 98-99% and the antitumor potency [9] was “significantly more potent”.
In the case of `CC[C@@](O)(C(=O)O)c1cc2n(c(=O)c1CO)Cc1cc3ccccc3nc1-2` [carboxylate form of CPT], the “anti-tumor potency relative to the original, non-hydrolyzed lactone form” value ([10]; carboxylate form from sodium hydroxide formulation) is listed as “approximately one-tenth or less” and the anti-tumor activity reduced ([10]; carboxylate form versus lactone) is listed as “at least 10 fold”.
